The source of these data is patent publication US20110288082A1, “METHODS AND COMPOSITIONS FOR INHIBITION OF THE TRANSITIONAL ENDOPLASMIC RETICULUM ATPASE” (priority 2010, published 2011).

Read-outs that look alike come from different tables or passages of the source.

Experiment [1] deals with p97-dependent Ub^G76V-GFP degradation in HeLa cells. The experiment in a line: Ub^G76V-GFP degradation (turn-over) assay. In kind it is cell-based, human. To be noted: Homo sapiens, HeLa. On the procedure: Ub^G76V-GFP Degradation Assay
Two GFP images with 100 ms exposure time per well were acquired and the average GFP intensity per area of a HeLa cell was determined by using MetaXpress software. Mean GFP intensity of 300-500 cells was calculated using Excel. Normalized GFP intensity was calculated using the following formula: (Test compound−Background)/(Basal GFP intensity—Background). Where: Test compound is defined as Mean GFP intensity of Ub^G76V-GFP-expressing cells treated with the test compound. Background is defined as background GFP intensity of HeLa cells. Basal GFP intensity is defined as mean GFP intensity of Ub^G76V-GFP-expressing cells treated with DMSO. […] The percent of remaining k for each compound is calculated using the following formula: (Test compound/DMSO control)*100. Where: Test_compound is defined as k determined from wells containing test compound, DMSO control is defined as k determined from wells containing DMSO.

A further experiment addresses p97 (Homo sapiens, UniProt P55072). The experiment is described as follows: p97 ATPase assay (Kinase Glo Plus; biomol green for compounds that interfere with luciferase). The class given is biochemical. The following applies: p97 ATPase assay. Here is the method:
Assay Buffer (20 μL of 2.5× concentration, where 1×=50 mM Tris pH 7.4, 20 mM MgCl2, 1 mM EDTA, 0.5 mM TCEP) was dispensed into each well of a 96 well plate. Purified p97 (25 μL of 50 μM) was diluted in 975 μL, of 1× Assay Buffer and 10 μL was dispensed in each well. Test compound (10 μL) or 5% DMSO (10 μL) was then added to each well and the plate was incubated at room temperature for 10 min. The ATPase assay was carried out by adding to each well 10 μL of 500 μM ATP (pH 7.5), incubating at room temperature for 60 min, and then adding 50 μL Kinase Glo Plus reagent (Promega) followed by a final 10 min incubation at room temperature in the dark. Luminescence was read on an Analyst AD (Molecular Devices). Compounds were assayed at a range of concentrations (0, 0.048, 0.24, 1.2, 6, 30 μM) in triplicate. The percent of remaining activity for each reaction was calculated using the following mathematical expression: ((Test Compound-High Control)/(Low Control-High Control))*100. Test_Compound is defined as wells containing test compound, Low_Control is defined as wells containing DMSO, High_Control is defined as wells containing no p97 protein. […] The result was expressed as mean +/− standard error. For assays with Myriad 12 and 19, 100 μL of biomol green reagent (Enzo Life Sciences) was added to each well instead of kinase Glo Plus (Promega) and absorbance at 630 nm was measured. This was done because these compounds interfered with luciferase activity. […]
Background: Kinase-Glo measures the ATP left after a reaction by luminescence.

[2] abbreviates: read-out: IC50 (μM) Ub^G76V-GFP turn over, p97-dependent Ub^G76V-GFP degradation turn-over assay.
[3] abbreviates: read-out: IC50 (μM) Ub^G76V-GFP turn over, Ub^G76V-GFP-expressing HeLa cells, degradation rate constant k from 90 to 180 min, mean +/- standard error.

As a reminder, the IC50 is the concentration that inhibits the measured activity by half.

p97, sequence (P55072 2-806 limits assumed): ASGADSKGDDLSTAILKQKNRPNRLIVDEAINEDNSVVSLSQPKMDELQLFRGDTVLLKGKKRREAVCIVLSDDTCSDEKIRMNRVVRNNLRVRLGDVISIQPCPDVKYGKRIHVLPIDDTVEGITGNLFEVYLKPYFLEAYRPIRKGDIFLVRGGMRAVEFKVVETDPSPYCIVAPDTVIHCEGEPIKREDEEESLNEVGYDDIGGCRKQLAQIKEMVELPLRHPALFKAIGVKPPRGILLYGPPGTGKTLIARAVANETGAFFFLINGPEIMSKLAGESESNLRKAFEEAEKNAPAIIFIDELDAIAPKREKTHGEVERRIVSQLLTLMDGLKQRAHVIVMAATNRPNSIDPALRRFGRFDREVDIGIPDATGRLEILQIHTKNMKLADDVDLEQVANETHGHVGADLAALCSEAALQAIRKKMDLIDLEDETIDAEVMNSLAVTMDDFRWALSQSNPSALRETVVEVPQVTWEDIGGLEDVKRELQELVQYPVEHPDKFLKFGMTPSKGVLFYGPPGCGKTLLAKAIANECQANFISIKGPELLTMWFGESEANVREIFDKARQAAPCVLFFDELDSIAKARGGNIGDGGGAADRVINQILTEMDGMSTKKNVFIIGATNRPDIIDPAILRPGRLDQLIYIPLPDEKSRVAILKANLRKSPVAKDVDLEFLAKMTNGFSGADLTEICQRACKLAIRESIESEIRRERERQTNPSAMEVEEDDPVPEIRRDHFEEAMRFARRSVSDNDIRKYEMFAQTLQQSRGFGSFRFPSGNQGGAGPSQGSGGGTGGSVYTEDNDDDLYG

On to `COc1ccc(-c2nc(NCc3ccccc3)c3ccc(Cl)cc3n2)cc1` [I-34], for which the IC50 in experiment [1] (setting [2]) was 70 ± 30 µM; on p97, 25 ± 11 µM.

Take `c1ccc(CNc2nc(Nc3ccccc3)nc3ccccc23)cc1` [II-1]: the half-inhibitory concentration (IC50) in experiment [1] (setting [3]) was 3.1 ± 0.4 µM.

In the case of `Clc1cccc(Nc2nc(NCc3ccccc3)c3ccccc3n2)c1` [II-13], the IC50 in experiment [1] (setting [3]) is 7.8 ± 1.3 µM.

For the compound `Fc1cccc(Nc2nc(NCc3ccccc3)c3ccccc3n2)c1` [II-14], the 50% inhibitory concentration (IC50) in experiment [1] (setting [3]) is 2.7 ± 0.4 µM.

For `Cc1ccc(CNc2nc(NCc3ccccc3)c3ccccc3n2)cc1` [IV-1], the half-maximal inhibitory concentration (IC50) in experiment [1] (setting [3]) was determined as 1.5 ± 0.4 µM.

For `Fc1cccc(CNc2nc(NCc3ccccc3)c3ccccc3n2)c1` [IV-13], in experiment [1] (setting [3]), the half-inhibitory concentration (IC50) came out at 2.8 ± 0.4 µM.

As to `Brc1cccc(CNc2nc(NCc3ccccc3)c3ccccc3n2)c1` [IV-14], the IC50 in experiment [1] (setting [3]) was determined as 2.8 ± 0.4 µM.

With `COc1cccc(CNc2nc(NCc3ccccc3)c3ccccc3n2)c1` [IV-15], the IC50 in experiment [1] (setting [3]) came to 2.5 ± 0.8 µM.

In the case of `FC(F)(F)c1ccc(CNc2nc(NCc3ccccc3)c3ccccc3n2)cc1` [IV-16], the IC50 in experiment [1] (setting [3]) stood at 2.3 ± 0.3 µM.

For the compound `COc1cccc2c(NCc3ccccc3)nc(NCc3cccs3)nc12` [XI-14], the half-maximal inhibitory concentration (IC50) in experiment [1] (setting [3]) is 1.8 ± 0.3 µM.

Consider `COc1cccc2c(NCc3ccccc3)nc(Nc3cccc(Cl)c3)nc12` [XI-16], for which the IC50 in experiment [1] (setting [3]) stood at 5.4 ± 1 µM.

On to `COc1cccc2c(NCc3ccccc3)nc(Nc3cccc(F)c3)nc12` [XI-17], for which, in experiment [1] (setting [3]), the IC50 is 4.8 ± 0.7 µM.

Take `COc1cccc2c(NCc3ccccn3)nc(N3CCNc4ccccc43)nc12` [XLIII]: the IC50 in experiment [1] (setting [2]) turned out to be 16 ± 2 µM.

As for `c1ccc(CNc2nc(N3CCOCC3)nc3ccccc23)cc1` [XLIV], the half-maximal inhibitory concentration (IC50) in experiment [1] (setting [2]) was determined as 36 ± 9 µM.

Turning to `N#CC(C(=O)COC(=O)CNc1ccc(C(F)(F)F)cc1[N+](=O)[O-])=C1Nc2ccccc2N1` [XLI], in experiment [1] (setting [2]), the concentration for half-maximal inhibition (IC50) came out at 6.5 ± 0.8 µM.

On to `N#CC(C(=O)COC(=O)C1COc2ccccc2O1)=C1Nc2ccccc2N1` (centres unmarked) [XL], for which the 50% inhibitory concentration (IC50) in experiment [1] (setting [2]) came out at 10 ± 1.4 µM.

For the compound `c1ccc(CNc2nc(N3CCCCC3)nc3ccccc23)cc1` [XXII], the concentration for half-maximal inhibition (IC50) in experiment [1] (setting [2]) worked out at 7.3 ± 2 µM.

As to `CCc1ccc(Nc2nc(N)nc(CCl)n2)cc1` [XXIX], the half-maximal inhibitory concentration (IC50) in experiment [1] (setting [2]) worked out at 18 ± 3 µM.

`Nc1nc(CCl)nc(N2CCCc3ccccc32)n1` [XXVIII]: in experiment [1] (setting [2]), the 50% inhibitory concentration (IC50) was 17 ± 3 µM.

For the compound `Nc1nc(Nc2cccc(Cl)c2)nc(C(Cl)Cl)n1` [XXVII], the IC50 in experiment [1] (setting [2]) worked out at 13 ± 3 µM.

For the compound `Nc1nc(CCl)nc(N2CCc3ccccc32)n1` [XXVI], the half-inhibitory concentration (IC50) in experiment [1] (setting [2]) is 10.4 ± 1.5 µM.

Consider `N#CC(C(=O)COC(=O)c1ccccc1Cc1ccccc1)=C1Nc2ccccc2N1` [XXXIII], for which the IC50 in experiment [1] (setting [2]) is 3.4 ± 0.6 µM.

Regarding `N#CC(C(=O)COC(=O)COc1ccc(Cl)cc1)=C1Nc2ccccc2N1` [XXXII], the IC50 in experiment [1] (setting [2]) is 2.6 ± 0.2 µM.

As for `N#CC(C(=O)COC(=O)COc1cccc(Br)c1)=C1Nc2ccccc2N1` [XXXIV], the IC50 in experiment [1] (setting [2]) is 5.9 ± 0.8 µM.

As for `N#CC(C(=O)COC(=O)CCC(=O)c1ccc2c(c1)OCCO2)=C1Nc2ccccc2N1` [XXXIX], the half-inhibitory concentration (IC50) in experiment [1] (setting [2]) turned out to be 6.3 ± 0.6 µM.

Turning to `Nc1nc(CCl)nc(Nc2ccc(Cl)cc2)n1` [XXXI], the 50% inhibitory concentration (IC50) in experiment [1] (setting [2]) is 8 ± 2 µM.

For `Cc1cc(OCC(=O)OCC(=O)C(C#N)=C2Nc3ccccc3N2)ccc1Cl` [XXXVIII], the IC50 in experiment [1] (setting [2]) came to 16 ± 1.4 µM.

Take `Cc1cc(C)cc(OCC(=O)OCC(=O)C(C#N)=C2Nc3ccccc3N2)c1` [XXXVII]: the half-maximal inhibitory concentration (IC50) in experiment [1] (setting [2]) was found to be 13 ± 1.4 µM.

On to `Cc1cccc(C)c1OCC(=O)OCC(=O)C(C#N)=C1Nc2ccccc2N1` [XXXVI], for which the concentration for half-maximal inhibition (IC50) in experiment [1] (setting [2]) was 15 ± 2 µM.

On to `CCCOc1ccc(C(=O)CCC(=O)OCC(=O)C(C#N)=C2Nc3ccccc3N2)cc1` [XXXV], for which, in experiment [1] (setting [2]), the IC50 was found to be 6.1 ± 0.6 µM.

`Nc1nc(CCl)nc(Nc2cccc3ccccc23)n1` [XXX]: in experiment [1] (setting [2]), the IC50 came to 14 ± 3 µM.
